Measured values: patent US5994349A, “3-carboalkoxy-2, 3-dihydro-1H-phenothiazin-4[10H]-one derivatives” (priority 1997, dated 1999)
Like-named read-outs stand apart in the source and are kept apart here.

Assays:
[1] = test system: maximal electroshock seizures; assay: maximal electroshock (MES) test, oral rat (Phase VIA/VIB); type: in vivo, male Sprague-Dawley rats; conditions: 30 mg/kg
Experimental: (§1) Initial evaluations for anticonvulsant activity include phases I, VIA and VIB test procedures. These tests are performed intraperitoneally in male Carworth Farms No. 1 (CF1) mice, weighing 18-25 g (Phase I) or orally in male Sprague-Dawley rats, weighing 100-150 g (Phases VIA and VIB). The evaluation is based on three tests: maximal electroshock (MES), subcutaneous (scMet), and the rotorod test for neurological toxicity (Tox). (a) Anticonvulsant Screening Project, Antiepileptic Drug Development Program, National Institutes of Health, DHEW Publ (NIH)(U.S.) 1978, NIH 78-1093. (b) Porter, R. J.; Cereghino, J. J.; Gladding, G. D.; Hessie, B. J.; Kupferberg, H. J.; Scoville, B.; White, B. G. Antiepileptic drug development program. Cleveland Clin. Q. 1984, 51, 293-305. (c) Krall, R. L.; Penry, J. K.; White, B. G.; Kupferberg, H. J.; Swinyard, E. A. Antiepileptic drug development: II. Anticonvulsant drug screening. Epilepsia 1978, 19, 400-428. In the MES test, maximal electroshock seizures are elicited with a 60- cycle alternating current of 50 mA intensity (5-7 times that necessary to elicit minimal electroshock seizures) delivered via corneal electrodes for 0.2 seconds. A drop of 0.9% saline is placed on the eye prior to application of the electrodes in order to […]. Abolition of the hind limb tonic extension component of the seizure is defined as protection and results are expressed as the number of animals protected/the number of animals tested.
(§2) To differentiate the results between different rodent species, 4b (X=H), as well as 4a (R=H), 4e (R=Cl), 4f (R=Cl) and 4i (R=CH3) are subsequently evaluated for oral (po) activity in the rat (Phase VIA or VIB).

[2] = test system: maximal electroshock seizures; assay: maximal electroshock (MES) test, Phase I, mice ip; type: in vivo, male Carworth Farms No. 1 (CF1) mice; conditions: Mus musculus
In short: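 Male CF1 mice (18-25 g) dosed ip at 30, 100 and 300 mg/kg in 0.5% methylcellulose, tested 30 min and 4 h later (sometimes 2 h and 6 h). Corneal 60-cycle, 50 mA current for 0.2 s; protection = abolition of hind limb tonic extension, scored as protected/tested.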

neurotoxicity (rotorod) [3] = assay: rotorod toxicity, oral rat (Phase VIA/VIB); type: in vivo, male Sprague-Dawley rats; conditions: rat oral, 30 mg/kg
Experimental: as §1
The rotorod test is used to evaluate neurotoxicity. The animal is placed on a 1 inch diameter knurled plastic rod rotating at 6 rpm. Normal mice can remain on a rod rotating at this speed indefinitely.
as §2

[4] = test system: pentylenetetrazol seizures; assay: subcutaneous pentylenetetrazol (scMet) test, Phase I, mice ip; type: in vivo, male Carworth Farms No. 1 (CF1) mice; conditions: Mus musculus, mice ip
[5] = stability in refluxing DMSO; type: physicochemical; conditions: refluxing DMSO for periods up to 40 min, forming 4m
Experimental: Without wishing to be held to any particular theory, when experimental conditions for the final step are identical for each ester, (i.e., 40 min reflux in DMSO), it is believed that the ter-butyl compound 4c (X=H) undergoes thermal decomposition to give 2,3-dihydro-1H-phenothiazin-4[10H]-one, 4d (X=H). Thermal decomposition of the desired phenothiazine 4c (X=H) to butylene and the b-keto acid (4, R=X=H) is suspected, followed by decarboxylation of the latter compound to 4d (X=H). This is substantiated by the formation of the 4c series by employing shorter reflux times in DMSO. […] Friary and coworkers have shown that 7c (R=C(CH3)3) is readily decarboxylated under acid-catalyzed conditions to form 7d (see Scheme III below). Friary, R. J.; Gilligan, J. M.; Szajewski, R. P.; Falci, K. J.; Franck, R. W. Heterocyclic syntheses via the intramolecular acylation of enamines derived from animo acids. J. Org. Chem. 1973, 38, 3487-3490. [drawing 7]

neurotoxicity (rotorod) [6] = assay: rotorod test for neurological toxicity (Tox), Phase I, mice ip; type: in vivo, male Carworth Farms No. 1 (CF1) mice
In short: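 Neurological toxicity was assessed in Phase I with the rotorod test in male Carworth Farms No. 1 (CF1) mice weighing 18-25 g, dosed intraperitoneally. Each mouse was set on a knurled plastic rod of 1 inch diameter turning at 6 rpm, a speed normal mice can stay on indefinitely. Motor impairment was recorded 30 min and 4 h after dosing, sometimes also at 2 h and 6 h.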

[7] = 4 h, read-out: MES 4 h (converted)
[8] = 0.5 h, 30 min, read-out: MES 30 min (converted)
[9] = 0.5 h, 30 min, read-out: scMet 30 min

Q: Which results are given for `C[C@@H]1CC2=C(Sc3cc(Br)ccc3N2)C(=O)[C@H]1C(=O)OC(C)(C)C` (relative stereo) [Compound 4l, 7-Bromo-3-carbo-ter-butoxy-2-methyl-2,3-dihydro-1H-phenothiazin-4[10H]-one]?
A: responders at 30 mg/kg ([1]; 0.25 h): 50%; responders at 30 mg/kg ([1]; 1.00 h): 100%; responders at 30 mg/kg ([1]; 2.00 h): 100%; responders at 30 mg/kg ([1]; 4.00 h): 100%; responders at 30 mg/kg ([1]; 0.5 h, 0.50 h): 50%; responders at 30 mg/kg ([2]; 4 h, read-out: MES 4 h): 0%; responders at 100 mg/kg [2, 7]: 66.7%; responders at 300 mg/kg [2, 7]: 100%; responders at 3 mg/kg ([2]; 0.5 h, 3 mg/kg, 30 min): 0%; responders at 10 mg/kg ([2]; 0.5 h, 10 mg/kg, 30 min, read-out: MES 30 min): 0%; responders at 30 mg/kg [2, 8]: 100%; responders at 100 mg/kg [2, 8]: 100%; responders at 300 mg/kg [2, 8]: 100%; Tox (neurotoxicity (rotorod) [3]; 0.25 h): 0/4; Tox (neurotoxicity (rotorod) [3]; 0.50 h): 0/4; Tox (neurotoxicity (rotorod) [3]; 1.00 h): 0/4; Tox (neurotoxicity (rotorod) [3]; 2.00 h): 0/4; Tox (neurotoxicity (rotorod) [3]; 4.00 h): 0/4; responders at 30 mg/kg [4, 9]: 0%; responders at 100 mg/kg [4, 9]: 0%; responders at 300 mg/kg ([4]; 0.5 h, 30 min, read-out: scMet 30 min (converted)): 33.3%; responders at 30 mg/kg ([4]; 4 h, read-out: scMet 4 h): 0%; responders at 100 mg/kg ([4]; 4 h, read-out: scMet 4 h): 0%; responders at 300 mg/kg ([4]; 4 h, read-out: scMet 4 h (converted)): 0%; stability in refluxing DMSO [5]: lability of the 3-carbo-ter butoxy substituent; Tox 30 min (neurotoxicity (rotorod) [6]; 10 mg/kg): 0/4; Tox 30 min (neurotoxicity (rotorod) [6]; 30 mg/kg): 0/4; Tox 4 h (neurotoxicity (rotorod) [6]; 30 mg/kg): 0/2; Tox 30 min (neurotoxicity (rotorod) [6]; 100 mg/kg): 0/8; Tox 4 h (neurotoxicity (rotorod) [6]; 100 mg/kg): 0/4; Tox 30 min (neurotoxicity (rotorod) [6]; 300 mg/kg): 0/4; Tox 4 h (neurotoxicity (rotorod) [6]; 300 mg/kg): 0/2
